Results reported in patent US20020147217A1, “The treatment of sexual dysfunction with enantiomers” (R.T. Alamo Ventures I, L.L.C., priority 2001, published 2002).
Where a name gives a salt, the structure may show the parent alone. Read-outs that look alike come from different tables or passages of the source.

Key:
[1] = test system: PDE4 partially purified from human U-937 pronocytic cells; test: PDE4 enzyme inhibition assay (Example 3); format: biochemical; settings: 100 μM
Procedure: (§1) In this example, a racemic mixture of flosequinan and the (+) and (−) enantiomers of flosequinan were subjected to biochemical enzyme assays to determine their respective percent inhibition of a variety of phosphodiesterases (PDE1-PDE6). The reaction conditions for each PDE assay were as follows.
(§2) PDE4: PDE4 partially purified from human U-937 pronocytic cells was used. A racemic mixture of flosequinan, and each enantiomer of flosequinan, all at a molar concentration of 100 μM, were independently incubated with 20 μg PDE4 enzyme and 1 μM cAMP containing 0.01 μM [^3H]cAMP in Tris buffer pH 7.5 for 20 minutes at 30° C. The reaction was terminated by boiling for 2 minutes, and the resulting AMP was converted to adenosine by addition of 10 mg/ml snake venom nucleotidase and further incubation at 30° C. for 10 minutes. Unhydrolyzed cAMP was bound to AGI-X2 resin, and the remaining [^3H]adenosine in the aqueous phase was quantitated by scintillation counting.

[2] = target: T1, PDE2 partially purified from human platelets (Homo sapiens, UniProt O00408); test: PDE2 enzyme inhibition assay (Example 3); format: biochemical; settings: for % Inhibition of PDE2: 100 μM
T1 construct: PDE2 partially purified from human platelets was used; from tissue; host or cells: human platelets
Procedure: as §1
as §2, with “PDE2: PDE2 partially” for “PDE4: PDE4 partially”, “human platelets” for “human U-937 pronocytic cells”, “with 23” for “with 20”, “μg PDE2 enzyme, 25” for “μg PDE4 enzyme and 1”, “containing 0.05” for “containing 0.01”

[3] = target: T2, PDE1 partially purified from bovine heart (Bos taurus, UniProt P14100); test: PDE1 enzyme inhibition assay (Example 3); format: biochemical
T2 construct: PDE1 partially purified from bovine heart was used; from tissue; host or cells: bovine heart
Procedure: as §1
as §2, with “PDE1: PDE1 partially” for “PDE4: PDE4 partially”, “from bovine heart” for “from human U-937 pronocytic cells”, “with 13” for “with 20”, “μg PDE1 enzyme, 1.0” for “μg PDE4 enzyme and 1 μM cAMP containing 0.01”, “[^3H]cAMP and CaCl2/calmodulin” for “[^3H]cAMP”

[4] = target: T3, PDE3 partially purified from human platelets (Homo sapiens, UniProt Q14432); test: PDE3 enzyme inhibition assay (Example 3); format: biochemical
T3 construct: PDE3 partially purified from human platelets was used; from tissue; host or cells: human platelets
Procedure: as §1
as §2, with “PDE3: PDE3 partially” for “PDE4: PDE4 partially”, “human platelets” for “human U-937 pronocytic cells”, “with 13” for “with 20”, “μg PDE3” for “μg PDE4”

[5] = target: T4, PDE5 partially purified from human platelets (Homo sapiens, UniProt O76074); test: PDE5 enzyme inhibition assay (Example 3); format: biochemical; settings: for % Inhibition of PDE5: 100 μM
T4 construct: PDE5 partially purified from human platelets was used; from tissue; host or cells: human platelets
Procedure: as §1
PDE5: PDE5 partially purified from human platelets was used. A racemic mixture of flosequinan, and each enantiomer of flosequinan, all at a molar concentration of 100 μM, were independently incubated with 120 μg PDE5 enzyme and 1 μM cGMP containing 0.01 μM [^3H]cGMP in Tris buffer pH 7.5 for 20 minutes at 30° C. The reaction was terminated by boiling for 2 minutes, and the resulting GMP was converted to guanosine by addition of 10 mg/ml snake venom nucleotidase and further incubation at 30° C. for 10 minutes. Unhydrolyzed cGMP was bound to AGI-X2 resin, and the remaining [^3H]guanosine in the aqueous phase was quantitated by scintillation counting.

[6] = target: T5, PDE6 partially purified from bovine retinal rod (Bos taurus, UniProt P11541+P23439); test: PDE6 enzyme inhibition assay (Example 3); format: biochemical; settings: for % Inhibition of PDE6: 100 μM
T5 construct: from tissue; host or cells: bovine retinal rod
T5 sequence (P11541 2-856 limits assumed): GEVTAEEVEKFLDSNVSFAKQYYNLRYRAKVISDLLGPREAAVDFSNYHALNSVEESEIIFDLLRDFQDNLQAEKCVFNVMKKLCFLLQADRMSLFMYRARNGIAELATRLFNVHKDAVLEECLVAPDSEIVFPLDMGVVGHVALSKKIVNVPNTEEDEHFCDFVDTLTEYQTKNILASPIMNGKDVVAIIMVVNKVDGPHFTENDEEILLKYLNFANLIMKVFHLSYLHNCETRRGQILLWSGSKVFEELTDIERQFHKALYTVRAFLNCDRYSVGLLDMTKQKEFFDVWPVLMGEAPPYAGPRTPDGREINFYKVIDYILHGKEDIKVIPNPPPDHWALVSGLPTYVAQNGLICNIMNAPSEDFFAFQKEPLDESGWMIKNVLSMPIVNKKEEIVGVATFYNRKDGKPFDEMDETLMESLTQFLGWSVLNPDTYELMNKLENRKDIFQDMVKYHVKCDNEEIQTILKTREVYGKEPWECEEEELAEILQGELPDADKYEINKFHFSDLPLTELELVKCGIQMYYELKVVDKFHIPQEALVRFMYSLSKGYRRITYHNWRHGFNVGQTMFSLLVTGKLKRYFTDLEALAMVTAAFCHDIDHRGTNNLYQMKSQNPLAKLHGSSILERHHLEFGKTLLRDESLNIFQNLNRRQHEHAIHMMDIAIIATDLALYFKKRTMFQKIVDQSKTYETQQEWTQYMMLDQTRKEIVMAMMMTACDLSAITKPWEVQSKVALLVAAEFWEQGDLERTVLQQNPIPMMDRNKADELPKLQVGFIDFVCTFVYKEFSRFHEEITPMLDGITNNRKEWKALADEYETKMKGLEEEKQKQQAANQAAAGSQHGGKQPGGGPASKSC
T5 sequence (P23439 2-850 limits assumed): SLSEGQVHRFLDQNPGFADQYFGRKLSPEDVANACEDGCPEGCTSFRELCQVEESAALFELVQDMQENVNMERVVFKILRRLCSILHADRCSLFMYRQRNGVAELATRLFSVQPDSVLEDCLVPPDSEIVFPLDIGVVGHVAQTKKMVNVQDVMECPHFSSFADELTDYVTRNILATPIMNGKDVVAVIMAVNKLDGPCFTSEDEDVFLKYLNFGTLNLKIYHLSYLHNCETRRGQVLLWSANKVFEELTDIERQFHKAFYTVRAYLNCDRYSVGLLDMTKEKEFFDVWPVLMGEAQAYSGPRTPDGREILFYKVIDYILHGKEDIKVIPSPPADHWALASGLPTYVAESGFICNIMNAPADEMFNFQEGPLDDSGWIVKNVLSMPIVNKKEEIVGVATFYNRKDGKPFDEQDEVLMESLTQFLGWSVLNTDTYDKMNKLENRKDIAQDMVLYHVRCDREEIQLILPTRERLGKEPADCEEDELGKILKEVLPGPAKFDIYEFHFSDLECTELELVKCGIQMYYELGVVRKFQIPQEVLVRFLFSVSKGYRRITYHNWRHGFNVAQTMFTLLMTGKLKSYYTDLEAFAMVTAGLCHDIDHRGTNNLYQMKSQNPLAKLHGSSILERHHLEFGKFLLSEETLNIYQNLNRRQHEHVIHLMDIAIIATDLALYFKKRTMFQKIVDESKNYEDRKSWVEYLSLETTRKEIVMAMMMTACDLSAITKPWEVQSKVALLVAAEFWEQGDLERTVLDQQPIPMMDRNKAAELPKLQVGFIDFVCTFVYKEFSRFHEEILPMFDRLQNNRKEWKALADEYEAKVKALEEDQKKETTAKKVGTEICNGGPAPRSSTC
Procedure: as §1
(§3) PDE6: PDE6 partially purified from bovine retinal rod and activated by trypsin was used. A racemic mixture of flosequinan, and each enantiomer of flosequinan, all at a molar concentration of 100 μM, were independently incubated with 0.2 μg/ml active PDE6 and 100 μM cGMP containing 0.1 μM [^3H]cGMP in Tris buffer pH 7.5 for 20 minutes at 30° C. Each reaction was terminated by boiling for 2 minutes. The resulting GMP was converted to guanosine by addition of 10 mg/ml snake venom nucleotidase, and further incubated at 30° C. for 10 minutes. Unhydrolyzed cGMP was bound to AGI-X2 resin, and [^3H]guanosine remaining in the aqueous phase was quantitated by scintillation counting.

[7] = target: T5, PDE6 partially purified from bovine retinal rod; test: PDE6 inhibition assay, Viagra versus racemic flosequinan (Example 1); format: biochemical
Procedure: as §3, with “PDE6” for “PDE6: PDE6”, “used. In four separate reactions, Viagra at molar concentrations of 0.3 μM, 1.0 μM, and 3.0 μM, and a 100 μM” for “used. A”, “of flosequinan” for “of flosequinan, and each enantiomer of flosequinan, all at a molar concentration of 100 μM,”, “were” for “were independently”, “by raising the temperature to 100° C.” for “by boiling”, “venom nucleotidase” for “venom nucleotidase,”

[8] = in vivo, po
[9] = Plasma levels following oral administration

T1 sequence (O00408 whole entry): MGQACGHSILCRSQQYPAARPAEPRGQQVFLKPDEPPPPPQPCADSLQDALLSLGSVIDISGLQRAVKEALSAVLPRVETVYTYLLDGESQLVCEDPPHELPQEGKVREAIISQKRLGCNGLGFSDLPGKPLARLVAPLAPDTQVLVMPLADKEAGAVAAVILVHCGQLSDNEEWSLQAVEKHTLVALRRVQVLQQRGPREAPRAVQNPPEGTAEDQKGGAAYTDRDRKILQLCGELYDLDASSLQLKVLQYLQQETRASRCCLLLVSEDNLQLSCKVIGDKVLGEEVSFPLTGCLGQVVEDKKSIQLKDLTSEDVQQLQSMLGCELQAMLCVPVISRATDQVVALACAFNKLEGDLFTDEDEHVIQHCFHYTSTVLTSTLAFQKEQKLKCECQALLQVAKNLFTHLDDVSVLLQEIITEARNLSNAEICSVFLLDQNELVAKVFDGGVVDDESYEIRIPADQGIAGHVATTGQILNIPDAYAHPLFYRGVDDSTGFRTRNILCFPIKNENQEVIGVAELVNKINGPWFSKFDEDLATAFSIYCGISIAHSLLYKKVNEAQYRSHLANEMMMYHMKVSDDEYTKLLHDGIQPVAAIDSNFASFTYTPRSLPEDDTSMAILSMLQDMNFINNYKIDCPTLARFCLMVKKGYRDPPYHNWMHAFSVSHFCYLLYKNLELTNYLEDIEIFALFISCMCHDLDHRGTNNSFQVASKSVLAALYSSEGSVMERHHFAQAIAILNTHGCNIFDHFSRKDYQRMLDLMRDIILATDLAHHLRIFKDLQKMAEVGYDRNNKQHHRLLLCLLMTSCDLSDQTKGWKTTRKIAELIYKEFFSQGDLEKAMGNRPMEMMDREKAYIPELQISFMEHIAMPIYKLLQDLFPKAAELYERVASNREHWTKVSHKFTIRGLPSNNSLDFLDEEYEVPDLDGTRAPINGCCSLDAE
T2 sequence (P14100 1-514 isoform P14100-2): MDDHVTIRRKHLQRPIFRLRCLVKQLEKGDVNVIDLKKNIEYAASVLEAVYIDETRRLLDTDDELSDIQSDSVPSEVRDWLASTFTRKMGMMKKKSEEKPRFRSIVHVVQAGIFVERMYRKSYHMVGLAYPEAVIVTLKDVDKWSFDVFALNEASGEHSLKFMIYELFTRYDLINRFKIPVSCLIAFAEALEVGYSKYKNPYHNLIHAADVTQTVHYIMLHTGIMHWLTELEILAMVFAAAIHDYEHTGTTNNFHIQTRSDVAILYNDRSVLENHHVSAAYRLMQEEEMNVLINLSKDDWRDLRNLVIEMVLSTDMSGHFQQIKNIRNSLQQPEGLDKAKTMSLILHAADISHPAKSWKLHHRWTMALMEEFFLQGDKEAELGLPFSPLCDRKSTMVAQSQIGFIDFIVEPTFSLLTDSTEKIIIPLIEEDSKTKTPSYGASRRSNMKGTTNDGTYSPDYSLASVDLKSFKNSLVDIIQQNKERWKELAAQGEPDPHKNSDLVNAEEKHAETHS
T3 sequence (Q14432 whole entry): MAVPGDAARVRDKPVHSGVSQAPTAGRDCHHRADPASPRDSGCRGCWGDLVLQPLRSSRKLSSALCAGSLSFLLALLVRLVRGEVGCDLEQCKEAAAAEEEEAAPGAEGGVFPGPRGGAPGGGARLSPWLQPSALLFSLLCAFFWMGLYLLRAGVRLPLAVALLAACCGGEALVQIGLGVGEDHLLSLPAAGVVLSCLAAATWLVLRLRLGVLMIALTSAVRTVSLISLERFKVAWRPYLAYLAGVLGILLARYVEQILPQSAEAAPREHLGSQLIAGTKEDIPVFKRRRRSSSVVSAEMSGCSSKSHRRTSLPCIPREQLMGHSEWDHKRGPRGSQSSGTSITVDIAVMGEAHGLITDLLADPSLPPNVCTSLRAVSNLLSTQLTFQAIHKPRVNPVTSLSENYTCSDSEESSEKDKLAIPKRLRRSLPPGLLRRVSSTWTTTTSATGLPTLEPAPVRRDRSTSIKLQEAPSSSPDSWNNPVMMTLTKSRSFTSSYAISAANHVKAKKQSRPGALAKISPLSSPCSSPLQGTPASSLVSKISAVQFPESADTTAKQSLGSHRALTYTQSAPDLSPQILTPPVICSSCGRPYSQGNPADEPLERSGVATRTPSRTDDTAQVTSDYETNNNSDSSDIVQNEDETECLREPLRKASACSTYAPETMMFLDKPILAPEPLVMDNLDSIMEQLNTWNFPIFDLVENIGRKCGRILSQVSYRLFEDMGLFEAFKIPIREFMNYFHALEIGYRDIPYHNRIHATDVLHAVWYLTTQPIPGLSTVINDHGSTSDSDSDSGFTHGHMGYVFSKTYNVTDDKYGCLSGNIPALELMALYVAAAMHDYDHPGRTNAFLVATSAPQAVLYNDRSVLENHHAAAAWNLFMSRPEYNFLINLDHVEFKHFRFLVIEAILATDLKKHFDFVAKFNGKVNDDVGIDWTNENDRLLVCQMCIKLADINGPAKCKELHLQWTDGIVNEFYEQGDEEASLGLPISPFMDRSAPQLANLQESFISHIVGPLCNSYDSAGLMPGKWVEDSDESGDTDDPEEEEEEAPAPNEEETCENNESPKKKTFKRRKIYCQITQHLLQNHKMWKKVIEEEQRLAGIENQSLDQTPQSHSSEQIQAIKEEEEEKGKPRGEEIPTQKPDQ

## Cn1cc([S+](C)[O-])c(=O)c2ccc(F)cc21 (racemic) [Flosequinan, 7-fluoro-1-methyl-3-(methylsulphinyl)-4(1H)-quinolone, reference compound]
[1]
  % Inhibition of PDE4: 24%
[2]
  inhibition at 100 µM: 18%
[3]
  inhibition at 100 µM: 31%
[4]; 100 μM
  inhibition at 100 µM: 26%
[5]
  inhibition at 100 µM: 11%
[6]
  inhibition at 100 µM: 21%
[7]; 100 μM compound
  inhibition at 100 µM: 36%
[7]; read-out: Concentration required for around 50% inhibition of PDE6
  IC50: > 100 µM
[7]; versus Viagra 0.3 μM
  Times more compound on a molar basis than Viagra needed for around 50% PDE6 inhibition: more than 300 times

## Cn1cc([S+](C)[O-])c(=O)c2ccc(F)cc21 (single isomer, unassigned; (-)) [(−)-flosequinan]
[1]
  % Inhibition of PDE4: 1%
[2]
  % Inhibition of PDE2: 13%
[3]; 100 μM
  % Inhibition of PDE1: 11%
[4]; 100 μM
  % Inhibition of PDE3: 5%
[5]
  % Inhibition of PDE5: 10%
[6]
  % Inhibition of PDE6: 21%

## Cn1cc([S@@+](C)[O-])c(=O)c2ccc(F)cc21 [(+)-flosequinan]
[1]
  % Inhibition of PDE4: 6%
[2]
  % Inhibition of PDE2: 18%
[3]; 100 μM
  % Inhibition of PDE1: 28%
  PDE1 inhibitory activity compared with the (−) enantiomer: more PDE1 and PDE3 inhibitory activity
[4]; 100 μM
  % Inhibition of PDE3: 32%
  PDE3 inhibitory activity compared with the (−) enantiomer: more PDE1 and PDE3 inhibitory activity
[4]; same molar concentration
  Increase in PDE3 inhibition compared to the (−) enantiomer: eight-fold
  PDE3 inhibition compared with racemic mixture of flosequinan: greater inhibition of PDE3 than a racemic mixture of flosequinan
[8]
  Time of peak plasma concentration: 1 to 2 h
[5]
  % Inhibition of PDE5: 17%
[6]
  % Inhibition of PDE6: 22%

## CCCc1nn(C)c2c(=O)[nH]c(-c3cc(S(=O)(=O)N4CCN(C)CC4)ccc3OCC)nc12 [Viagra, Sildenafil citrate]
[7]; read-out: % Inhibition of PDE6, 0.3 μM compound
  inhibition at 0.3 µM: ~50%
[7]; read-out: % Inhibition of PDE6, 1.0 μM compound
  inhibition at 1 µM: 62%
[7]; read-out: % Inhibition of PDE6, 3.0 μM compound
  inhibition at 3 µM: 87%

## CSc1cn(C)c2cc(F)ccc2c1=O [metabolite]
[9]
  Time of peak plasma concentration: about seven
